Measurements: ChEMBL document CHEMBL4507316 (2021)

How the values were obtained:
[1] = biological target: Hepatocyte growth factor receptor (Homo sapiens) (UniProt P08581); assay: MET wt ProQinase selectivity panel; conditions: Compound concentration 1.0 uM
[2] = biological target: Mitogen-activated protein kinase kinase kinase 14 (Homo sapiens) (UniProt Q99558); assay: NIK ProQinase selectivity panel; conditions: Compound concentration 1.0 uM
[3] = biological target: Serine/threonine-protein kinase PAK 6 (Homo sapiens) (UniProt Q9NQU5); assay: PAK6 ProQinase selectivity panel; conditions: Compound concentration 1.0 uM
[4] = test system: Hepatocyte growth factor receptor (Homo sapiens), P08581 [F1200I]; assay: MET F1200I ProQinase selectivity panel; conditions: Compound concentration 1.0 uM
[5] = test system: Platelet-derived growth factor receptor alpha (Homo sapiens), P16234 [D842V]; assay: PDGFR-alpha D842V ProQinase selectivity panel; conditions: Compound concentration 1.0 uM
[6] = biological target: Serine/threonine-protein kinase 4 (Homo sapiens) (UniProt Q13043); assay: MST1 ProQinase selectivity panel; conditions: Compound concentration 1.0 uM
[7] = biological target: Myotonin-protein kinase (Homo sapiens) (UniProt Q09013); assay: DMPK ProQinase selectivity panel; conditions: Compound concentration 1.0 uM
Chain of Myotonin-protein kinase (Homo sapiens) (Q09013 whole entry): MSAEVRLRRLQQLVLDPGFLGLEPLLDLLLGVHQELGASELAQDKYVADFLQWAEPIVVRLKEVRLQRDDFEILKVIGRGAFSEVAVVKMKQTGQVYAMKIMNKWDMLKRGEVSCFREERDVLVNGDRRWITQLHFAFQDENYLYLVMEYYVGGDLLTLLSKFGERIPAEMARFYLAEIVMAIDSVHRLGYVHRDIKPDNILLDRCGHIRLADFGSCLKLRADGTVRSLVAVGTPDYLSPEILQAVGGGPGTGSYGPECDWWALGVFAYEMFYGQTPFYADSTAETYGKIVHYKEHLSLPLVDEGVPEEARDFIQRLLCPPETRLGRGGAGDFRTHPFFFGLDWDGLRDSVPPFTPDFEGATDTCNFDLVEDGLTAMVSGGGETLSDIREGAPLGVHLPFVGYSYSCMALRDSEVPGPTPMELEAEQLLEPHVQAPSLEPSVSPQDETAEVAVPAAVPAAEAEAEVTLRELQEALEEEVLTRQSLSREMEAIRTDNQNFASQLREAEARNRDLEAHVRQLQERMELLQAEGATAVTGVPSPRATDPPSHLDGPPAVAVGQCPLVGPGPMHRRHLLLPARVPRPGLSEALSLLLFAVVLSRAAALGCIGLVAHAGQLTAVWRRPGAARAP

[8] = test system: Hepatocyte growth factor receptor (Homo sapiens), P08581 [Y1235D]; assay: MET Y1235D ProQinase selectivity panel; conditions: Compound concentration 1.0 uM
[9] = biological target: Serine/threonine-protein kinase 24 (Homo sapiens) (UniProt Q9Y6E0); assay: MST3 ProQinase selectivity panel; conditions: Compound concentration 1.0 uM
[10] = biological target: MAP/microtubule affinity-regulating kinase 3 (Homo sapiens) (UniProt P27448); assay: MARK3 ProQinase selectivity panel; conditions: Compound concentration 1.0 uM
[11] = biological target: Rho-associated protein kinase 1 (Homo sapiens) (UniProt Q13464); assay: ROCK1 ProQinase selectivity panel; conditions: Compound concentration 1.0 uM
[12] = biological target: Muscarinic acetylcholine receptor M1 (Homo sapiens) (UniProt P11229); conditions: Compound concentration 10.0 uM
Chain of Muscarinic acetylcholine receptor M1 (Homo sapiens) (P11229 whole entry): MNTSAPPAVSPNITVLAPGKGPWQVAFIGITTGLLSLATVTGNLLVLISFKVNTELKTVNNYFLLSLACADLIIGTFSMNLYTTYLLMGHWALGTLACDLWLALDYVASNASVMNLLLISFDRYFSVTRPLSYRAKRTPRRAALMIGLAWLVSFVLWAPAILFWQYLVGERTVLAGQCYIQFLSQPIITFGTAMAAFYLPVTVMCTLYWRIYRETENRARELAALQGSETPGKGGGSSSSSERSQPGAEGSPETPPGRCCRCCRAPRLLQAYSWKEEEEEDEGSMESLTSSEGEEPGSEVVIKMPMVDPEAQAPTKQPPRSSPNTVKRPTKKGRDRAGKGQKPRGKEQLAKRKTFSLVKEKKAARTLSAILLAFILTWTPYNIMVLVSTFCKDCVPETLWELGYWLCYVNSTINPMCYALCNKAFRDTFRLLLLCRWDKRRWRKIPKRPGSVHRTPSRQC

[13] = biological target: Glycogen synthase kinase-3 beta (Homo sapiens) (UniProt P49841); assay: GSK3-beta ProQinase selectivity panel; conditions: Compound concentration 1.0 uM
[14] = biological target: Serine/threonine-protein kinase Sgk1 (Homo sapiens) (UniProt O00141); assay: SGK1 ProQinase selectivity panel; conditions: Compound concentration 1.0 uM
[15] = biological target: D(2) dopamine receptor (Homo sapiens) (UniProt P14416); conditions: Compound concentration 10.0 uM
[16] = biological target: Muscarinic acetylcholine receptor M5 (Homo sapiens) (UniProt P08912); conditions: Compound concentration 10.0 uM
[17] = biological target: Cyclin-dependent kinase 9 (Homo sapiens) (UniProt P50750); assay: CDK9/CycT ProQinase selectivity panel; conditions: Compound concentration 1.0 uM
[18] = biological target: Vascular endothelial growth factor receptor 3 (Homo sapiens) (UniProt P35916); assay: VEGF-R3 ProQinase selectivity panel; conditions: Compound concentration 1.0 uM
[19] = biological target: Cytoplasmic tyrosine-protein kinase BMX (Homo sapiens) (UniProt P51813); assay: BMX ProQinase selectivity panel; conditions: Compound concentration 1.0 uM
[20] = biological target: Sodium-dependent dopamine transporter (Homo sapiens, UniProt Q01959); conditions: Compound concentration 10.0 uM
[21] = biological target: Ephrin type-B receptor 4 (Homo sapiens) (UniProt P54760); assay: EPHB4 ProQinase selectivity panel; conditions: Compound concentration 1.0 uM
[22] = biological target: Serine/threonine-protein kinase TAO3 (Homo sapiens) (UniProt Q9H2K8); assay: TAOK3 ProQinase selectivity panel; conditions: Compound concentration 1.0 uM
[23] = biological target: Tyrosine-protein kinase receptor TYRO3 (Homo sapiens) (UniProt Q06418); assay: TYRO3 ProQinase selectivity panel; conditions: Compound concentration 1.0 uM
[24] = biological target: Serine/threonine-protein kinase Nek9 (Homo sapiens) (UniProt Q8TD19); assay: NEK9 ProQinase selectivity panel; conditions: Compound concentration 1.0 uM
[25] = biological target: Serine/threonine-protein kinase pim-2 (Homo sapiens) (UniProt Q9P1W9); assay: PIM2 ProQinase selectivity panel; conditions: Compound concentration 1.0 uM
[26] = biological target: Tyrosine-protein kinase TXK (Homo sapiens) (UniProt P42681); assay: TXK ProQinase selectivity panel; conditions: Compound concentration 1.0 uM
[27] = biological target: Phosphorylase b kinase gamma catalytic chain, skeletal muscle/heart isoform (Homo sapiens) (UniProt Q16816); assay: PHKG1 ProQinase selectivity panel; conditions: Compound concentration 1.0 uM
[28] = biological target: Sodium-dependent noradrenaline transporter (Homo sapiens) (UniProt P23975); conditions: Compound concentration 10.0 uM
[29] = biological target: Ribosomal protein S6 kinase alpha-1 (Homo sapiens) (UniProt Q15418); assay: RPS6KA1 ProQinase selectivity panel; conditions: Compound concentration 1.0 uM
[30] = test system: Proto-oncogene tyrosine-protein kinase receptor Ret (Homo sapiens), P07949 [Y791F]; assay: RET Y791F ProQinase selectivity panel; conditions: Compound concentration 1.0 uM
[31] = biological target: Mitogen-activated protein kinase kinase kinase 9 (Homo sapiens) (UniProt P80192); assay: MAP3K9 ProQinase selectivity panel; conditions: Compound concentration 1.0 uM
[32] = biological target: ALK tyrosine kinase receptor (Homo sapiens) (UniProt Q9UM73); assay: ALK ProQinase selectivity panel; conditions: Compound concentration 1.0 uM
Chain of ALK tyrosine kinase receptor (Homo sapiens) (Q9UM73 19-1620 limits assumed): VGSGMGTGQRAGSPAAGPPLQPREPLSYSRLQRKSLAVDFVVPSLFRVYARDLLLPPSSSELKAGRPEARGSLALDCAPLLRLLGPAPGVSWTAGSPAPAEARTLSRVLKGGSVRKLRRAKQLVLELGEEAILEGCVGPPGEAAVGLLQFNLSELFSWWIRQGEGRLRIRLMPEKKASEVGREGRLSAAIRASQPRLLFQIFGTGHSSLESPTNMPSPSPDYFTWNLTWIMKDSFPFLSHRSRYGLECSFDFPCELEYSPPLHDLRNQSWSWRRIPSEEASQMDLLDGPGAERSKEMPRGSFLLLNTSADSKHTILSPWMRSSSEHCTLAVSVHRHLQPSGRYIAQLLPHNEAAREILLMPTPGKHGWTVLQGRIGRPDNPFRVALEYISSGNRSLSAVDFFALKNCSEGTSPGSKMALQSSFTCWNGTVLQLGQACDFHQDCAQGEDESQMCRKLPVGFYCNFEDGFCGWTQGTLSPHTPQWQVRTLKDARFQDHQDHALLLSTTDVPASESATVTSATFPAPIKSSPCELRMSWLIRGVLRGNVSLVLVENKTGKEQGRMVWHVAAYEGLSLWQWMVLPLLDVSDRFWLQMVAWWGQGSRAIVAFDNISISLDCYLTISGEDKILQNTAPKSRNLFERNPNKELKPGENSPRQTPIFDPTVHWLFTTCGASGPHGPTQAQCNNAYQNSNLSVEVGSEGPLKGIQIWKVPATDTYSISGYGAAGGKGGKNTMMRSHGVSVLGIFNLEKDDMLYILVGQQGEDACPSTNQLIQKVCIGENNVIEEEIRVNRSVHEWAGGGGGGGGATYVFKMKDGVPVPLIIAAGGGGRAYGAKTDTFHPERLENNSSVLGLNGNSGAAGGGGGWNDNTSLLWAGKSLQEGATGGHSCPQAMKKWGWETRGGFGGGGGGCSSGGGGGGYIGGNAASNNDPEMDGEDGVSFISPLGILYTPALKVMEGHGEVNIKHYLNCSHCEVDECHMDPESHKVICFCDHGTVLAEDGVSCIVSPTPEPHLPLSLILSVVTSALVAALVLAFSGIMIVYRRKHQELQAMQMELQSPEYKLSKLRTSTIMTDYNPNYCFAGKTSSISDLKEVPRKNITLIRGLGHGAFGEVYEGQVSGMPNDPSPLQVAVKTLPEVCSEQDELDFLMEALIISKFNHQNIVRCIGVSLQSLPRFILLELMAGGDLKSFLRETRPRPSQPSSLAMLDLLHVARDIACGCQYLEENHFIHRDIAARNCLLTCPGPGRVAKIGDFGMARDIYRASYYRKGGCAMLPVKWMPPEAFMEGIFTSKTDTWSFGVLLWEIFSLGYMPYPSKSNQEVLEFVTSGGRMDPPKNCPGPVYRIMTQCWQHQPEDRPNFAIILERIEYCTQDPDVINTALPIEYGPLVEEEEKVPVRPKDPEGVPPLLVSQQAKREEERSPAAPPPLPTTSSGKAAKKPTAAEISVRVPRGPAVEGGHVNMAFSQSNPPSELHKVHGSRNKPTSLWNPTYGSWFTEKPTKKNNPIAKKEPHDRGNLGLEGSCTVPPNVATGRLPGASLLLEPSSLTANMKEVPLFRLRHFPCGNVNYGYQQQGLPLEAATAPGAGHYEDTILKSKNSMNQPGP

[33] = test system: Serine/threonine-protein kinase B-raf (Homo sapiens), P15056 [V600E]; assay: B-RAF V600E ProQinase selectivity panel; conditions: Compound concentration 1.0 uM
[34] = biological target: Tyrosine-protein kinase Yes (Homo sapiens) (UniProt P07947); assay: YES ProQinase selectivity panel; conditions: Compound concentration 1.0 uM
Chain of Tyrosine-protein kinase Yes (Homo sapiens) (P07947 2-543 limits assumed): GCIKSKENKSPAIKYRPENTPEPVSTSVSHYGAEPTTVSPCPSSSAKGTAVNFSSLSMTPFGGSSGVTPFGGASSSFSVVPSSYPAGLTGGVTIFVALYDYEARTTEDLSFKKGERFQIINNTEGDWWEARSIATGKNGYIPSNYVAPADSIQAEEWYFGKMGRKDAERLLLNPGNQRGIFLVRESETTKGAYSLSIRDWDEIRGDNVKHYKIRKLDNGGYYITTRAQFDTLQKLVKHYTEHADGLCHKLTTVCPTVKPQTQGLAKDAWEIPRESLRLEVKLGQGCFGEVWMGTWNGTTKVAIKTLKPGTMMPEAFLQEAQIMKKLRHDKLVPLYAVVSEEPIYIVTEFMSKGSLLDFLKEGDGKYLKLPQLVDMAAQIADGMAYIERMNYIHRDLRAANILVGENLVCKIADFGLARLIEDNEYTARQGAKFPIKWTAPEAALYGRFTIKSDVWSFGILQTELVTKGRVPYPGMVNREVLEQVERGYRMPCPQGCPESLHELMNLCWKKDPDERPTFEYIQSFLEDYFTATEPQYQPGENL

[35] = biological target: Sigma intracellular receptor 2 (Homo sapiens, UniProt Q5BJF2); conditions: Compound concentration 10.0 uM
[36] = biological target: Dual specificity protein kinase TTK (Homo sapiens) (UniProt P33981); assay: TTK ProQinase selectivity panel; conditions: Compound concentration 1.0 uM
[37] = test system: Leucine-rich repeat serine/threonine-protein kinase 2 (Homo sapiens), Q5S007 [R1441C]; assay: LRRK2 R1441C ProQinase selectivity panel; conditions: Compound concentration 1.0 uM
[38] = biological target: Beta-adrenergic receptor kinase 1 (Homo sapiens) (UniProt P25098); assay: GRK2 ProQinase selectivity panel; conditions: Compound concentration 1.0 uM
[39] = biological target: Tyrosine-protein kinase ITK/TSK (Homo sapiens) (UniProt Q08881); assay: ITK ProQinase selectivity panel; conditions: Compound concentration 1.0 uM
Chain of Tyrosine-protein kinase ITK/TSK (Homo sapiens) (Q08881 whole entry): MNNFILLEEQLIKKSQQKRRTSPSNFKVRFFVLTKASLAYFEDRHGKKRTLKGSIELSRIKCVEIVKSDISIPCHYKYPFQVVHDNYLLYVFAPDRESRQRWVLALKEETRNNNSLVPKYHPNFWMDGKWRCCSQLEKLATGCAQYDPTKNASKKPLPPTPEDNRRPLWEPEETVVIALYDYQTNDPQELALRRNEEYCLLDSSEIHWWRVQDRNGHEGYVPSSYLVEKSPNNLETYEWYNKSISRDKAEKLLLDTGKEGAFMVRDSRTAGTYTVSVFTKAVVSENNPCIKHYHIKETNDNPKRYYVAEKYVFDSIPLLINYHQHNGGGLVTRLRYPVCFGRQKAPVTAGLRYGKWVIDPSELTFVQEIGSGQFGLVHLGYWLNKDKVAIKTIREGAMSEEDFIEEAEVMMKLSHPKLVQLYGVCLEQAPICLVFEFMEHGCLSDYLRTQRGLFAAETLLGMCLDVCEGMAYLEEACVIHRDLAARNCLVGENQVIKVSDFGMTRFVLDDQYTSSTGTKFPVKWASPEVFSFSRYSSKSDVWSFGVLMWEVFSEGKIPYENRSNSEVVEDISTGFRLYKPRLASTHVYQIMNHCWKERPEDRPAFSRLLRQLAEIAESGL

[40] = biological target: Fibroblast growth factor receptor 4 (Homo sapiens) (UniProt P22455); assay: FGF-R4 ProQinase selectivity panel; conditions: Compound concentration 1.0 uM
[41] = test system: Tyrosine-protein kinase ABL1 (Homo sapiens), P00519 [T315I]; assay: ABL1 T315I ProQinase selectivity panel; conditions: Compound concentration 1.0 uM
[42] = biological target: Serine/threonine-protein kinase mTOR (Homo sapiens) (UniProt P42345); assay: mTOR ProQinase selectivity panel; conditions: Compound concentration 1.0 uM
[43] = biological target: Ribosomal protein S6 kinase beta-1 (Homo sapiens) (UniProt P23443); assay: S6K ProQinase selectivity panel; conditions: Compound concentration 1.0 uM
[44] = biological target: Ribosomal protein S6 kinase alpha-3 (Homo sapiens) (UniProt P51812); assay: RPS6KA3 ProQinase selectivity panel; conditions: Compound concentration 1.0 uM
Chain of Ribosomal protein S6 kinase alpha-3 (Homo sapiens) (P51812 whole entry): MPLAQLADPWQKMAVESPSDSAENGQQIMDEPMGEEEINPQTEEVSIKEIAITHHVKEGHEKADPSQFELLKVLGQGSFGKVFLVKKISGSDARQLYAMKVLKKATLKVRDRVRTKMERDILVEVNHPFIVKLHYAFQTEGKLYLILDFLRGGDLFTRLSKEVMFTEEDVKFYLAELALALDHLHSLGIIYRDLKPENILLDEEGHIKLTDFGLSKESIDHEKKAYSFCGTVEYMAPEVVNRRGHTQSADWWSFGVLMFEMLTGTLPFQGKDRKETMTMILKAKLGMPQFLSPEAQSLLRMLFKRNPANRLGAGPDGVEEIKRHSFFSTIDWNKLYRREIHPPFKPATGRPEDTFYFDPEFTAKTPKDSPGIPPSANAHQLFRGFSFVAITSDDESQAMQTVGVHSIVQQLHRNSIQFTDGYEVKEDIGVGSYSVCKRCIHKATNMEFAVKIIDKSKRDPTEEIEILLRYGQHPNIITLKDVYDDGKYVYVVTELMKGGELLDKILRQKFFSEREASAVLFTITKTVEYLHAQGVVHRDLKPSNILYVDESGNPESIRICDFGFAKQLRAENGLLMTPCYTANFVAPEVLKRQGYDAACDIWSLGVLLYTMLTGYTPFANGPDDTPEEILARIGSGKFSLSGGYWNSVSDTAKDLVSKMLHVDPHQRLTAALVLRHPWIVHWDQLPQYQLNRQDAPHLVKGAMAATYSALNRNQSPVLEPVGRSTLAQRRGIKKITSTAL

[45] = biological target: Calcium/calmodulin-dependent protein kinase type II subunit beta (Homo sapiens) (UniProt Q13554); assay: CAMK2B ProQinase selectivity panel; conditions: Compound concentration 1.0 uM
[46] = test system: Hepatocyte growth factor receptor (Homo sapiens), P08581 [Y1230D]; assay: MET Y1230D ProQinase selectivity panel; conditions: Compound concentration 1.0 uM
[47] = biological target: Serine/threonine-protein kinase Chk1 (Homo sapiens) (UniProt O14757); assay: CHK1 ProQinase selectivity panel; conditions: Compound concentration 1.0 uM
[48] = biological target: Serine/threonine-protein kinase PLK2 (Homo sapiens) (UniProt Q9NYY3); assay: SNK ProQinase selectivity panel; conditions: Compound concentration 1.0 uM
[49] = biological target: Beta-2 adrenergic receptor (Homo sapiens) (UniProt P07550); conditions: Compound concentration 10.0 uM
Chain of Beta-2 adrenergic receptor (Homo sapiens) (P07550 whole entry, looked up): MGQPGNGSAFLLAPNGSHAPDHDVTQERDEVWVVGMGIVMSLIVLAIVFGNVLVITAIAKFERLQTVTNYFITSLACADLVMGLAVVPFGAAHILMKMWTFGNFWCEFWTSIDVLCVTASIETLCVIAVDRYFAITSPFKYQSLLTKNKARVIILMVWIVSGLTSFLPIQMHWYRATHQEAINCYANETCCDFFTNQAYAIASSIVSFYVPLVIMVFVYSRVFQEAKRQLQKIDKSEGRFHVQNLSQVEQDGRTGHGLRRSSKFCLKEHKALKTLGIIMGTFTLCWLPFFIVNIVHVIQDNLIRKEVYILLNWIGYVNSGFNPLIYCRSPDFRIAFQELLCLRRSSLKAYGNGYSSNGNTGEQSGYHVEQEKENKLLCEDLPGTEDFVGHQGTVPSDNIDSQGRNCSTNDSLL

O=C1c2ccc(Nc3ccc(F)cc3F)cc2CCc2ccc(OC[C@H](O)CO)cc21 [Skepinone-L]
% Residual activity with Skepinone-L [1]: 108%
% Residual activity with Skepinone-L [2]: 96%
% Residual activity with Skepinone-L [3]: 101%
% Residual activity with Skepinone-L [4]: 96%
% Residual activity with Skepinone-L [5]: 97%
% Residual activity with Skepinone-L [6]: 71%
% Residual activity with Skepinone-L [7]: 99%
% Residual activity with Skepinone-L [8]: 114%
% Residual activity with Skepinone-L [9]: 106%
% Residual activity with Skepinone-L [10]: 95%
% Residual activity with Skepinone-L [11]: 97%
inhibition [12]: 45.5%
% Residual activity with Skepinone-L [13]: 97%
% Residual activity with Skepinone-L [14]: 90%
inhibition [15]: 7.19%
inhibition [16]: -9.46%
% Residual activity with Skepinone-L [17]: 103%
% Residual activity with Skepinone-L [18]: 100%
% Residual activity with Skepinone-L [19]: 108%
inhibition [20]: 81.4%
% Residual activity with Skepinone-L [21]: 128%
% Residual activity with Skepinone-L [22]: 102%
% Residual activity with Skepinone-L [23]: 108%
% Residual activity with Skepinone-L [24]: 104%
% Residual activity with Skepinone-L [25]: 97%
% Residual activity with Skepinone-L [26]: 93%
% Residual activity with Skepinone-L [27]: 93%
inhibition [28]: 29.4%
% Residual activity with Skepinone-L [29]: 89%
% Residual activity with Skepinone-L [30]: 141%
% Residual activity with Skepinone-L [31]: 90%
% Residual activity with Skepinone-L [32]: 104%
% Residual activity with Skepinone-L [33]: 135%
% Residual activity with Skepinone-L [34]: 119%
inhibition [35]: 53.1%
% Residual activity with Skepinone-L [36]: 83%
% Residual activity with Skepinone-L [37]: 89%
% Residual activity with Skepinone-L [38]: 83%
% Residual activity with Skepinone-L [39]: 97%
% Residual activity with Skepinone-L [40]: 103%
% Residual activity with Skepinone-L [41]: 93%
% Residual activity with Skepinone-L [42]: 97%
% Residual activity with Skepinone-L [43]: 85%
% Residual activity with Skepinone-L [44]: 89%
% Residual activity with Skepinone-L [45]: 86%
% Residual activity with Skepinone-L [46]: 95%
% Residual activity with Skepinone-L [47]: 94%
% Residual activity with Skepinone-L [48]: 103%
inhibition [49]: 2.93%
